Read-outs that look alike come from different tables or passages of the source.
Columns and labels:
[1] = Example 11: hydroformylation of propylene; conditions: 133 °C.
Method: Reaction Conditions: 1000 psig Total pressure, CO/H2 (50/50) mixture), 60 ml benzene as solvent, 0.30-0.45 moles propylene, 0.5 mmoles catalyst (based on Rh).

[2] = Table III: effect of cocatalyst on carbonylation of methanol to methyl acetate
[3] = Example 7: effect of cocatalyst on production of methyl acetate from CH3 OH; conditions: 175° C.
[4] = Example 8 / Table II: effect of catalyst on carbonylation of methanol to methyl acetate; conditions: CH3 I 8.0 mmole, 175° C., 1000 psi; for % Selectivity: additional product dimethyl ether
[5] = Method: This conversion is run at elevated pressures, preferably from 1,500 to 3,000 psi. Reaction temperatures will range from 50° C. to 200° C., with a range of 100° C. to 150° C. preferred. Ratio of H2 to CO used will vary with reaction conditions; preferably a 1 to 1 ratio is maintained. The catalyst concentration will range from 0.01 to 20% based on the weight feed, with 0.05 to 10 % preferred.
30 ml. of hexene-1, 20 ml. of benzene, and 0.3 gm. […] The bomb was heated to 140° C. and held until the reaction was complete.

[6] = cocatalyst 8.0 mmole, 175° C., 1000 psi, CH3 I 18 hr, CH3 CH2 I 19 hr, C6 H5 I 90 hr
[7] = cocatalyst 8.0 mmole, 1000 psi CO, CH3 I 18 hours, CH3 CH2 I 19 hours, C6 H5 I 90 hours
[8] = cocatalyst 8.0 mmole, 3.25 hr, 175° C., 4000 psi CO
[9] = cocatalyst 16.0 mmole, 4.25 hr, 175° C., 4000 psi CO
[10] = catalyst 1.0 mmole, 18-21 hours
[11] = catalyst 2.0 mmole, 16-19 hours (Co(C5 H7 O2)3: 67)
[12] = cocatalyst 4.0 mmole, 4000 psi CO, 4 hours

O=[C]=[Rh]([Cl])([PH](c1ccccc1)(c1ccccc1)c1ccccc1)[PH](c1ccccc1)(c1ccccc1)c1ccccc1 [((C6 H5)3 P)2 Rh(CO)Cl]
(%) n-C4 H8 O (percent straight chain isomer) ([1]; 1000 psig CO/H2 50/50): 56% | k (pseudo 1st order reaction rate constant) ([1]; 1000 psig CO/H2 50/50): 0.0744 min⁻¹ | t1/2 ([1]; t1/2 = ln 2/k): 9.32 min

Ic1ccccc1 [C6 H5 I]
% Conversion to Methyl Acetate [2, 6]: 25% | % Selectivity to Methyl Acetate [2, 6]: 52% | methyl acetate produced (head is a drawing) [3, 7]: 22.3 mL

CBr [CH3 Br]
promotional effect as cocatalyst [2]: inventive

CCI [CH3 CH2 I]
% Conversion to Methyl Acetate [2, 6]: 20% | % Selectivity to Methyl Acetate [2, 6]: 85% | methyl acetate produced (head is a drawing) [3, 7]: 17.5 mL

CI [CH3 I, methyl iodide]
% Conversion to Methyl Acetate [2, 6]: 24% | % Selectivity to Methyl Acetate [2, 6]: 85% | % Conversion to Methyl Acetate [2, 8]: 29% | % Selectivity to Methyl Acetate [2, 8]: 97% | % Conversion to Methyl Acetate [2, 9]: 25% | % Selectivity to Methyl Acetate [2, 9]: 74% | methyl acetate produced (head is a drawing) [3, 7]: 21.4 mL | methyl acetate produced (head is a drawing) ([3]; cocatalyst 8.0 mmole, 4000 psi CO, 4 hours): 29.6 mL | methyl acetate produced (head is a drawing) ([3]; cocatalyst 16.0 mmole, 4000 psi CO, 4 hours): 19.8 mL

[C-]#[O+].[C-]#[O+].[C-]#[O+].[C-]#[O+].[C-]#[O+].[C-]#[O+].[C-]#[O+].[C-]#[O+].[Co].[Co] [Co2 (CO)8]
% Conversion [4, 10]: 3.5% | % Selectivity [4, 10]: 6.4%

CC(=O)[CH-]C(C)=O.CC(=O)[CH-]C(C)=O.CC(=O)[CH-]C(C)=O.[Co+3] [Co(C5 H7 O2)3]
% Conversion [4, 11]: 16% | % Selectivity [4, 11]: 23%

II [Example I2, iodine]
methyl acetate produced (head is a drawing) ([3]; cocatalyst 2.0 mmole, 4000 psi CO, 4 hours): 5.2 mL

I [HI, hydrogen iodide]
% Conversion to Methyl Acetate [2]: 8 | % Selectivity to Methyl Acetate [2]: 47 | methyl acetate produced (head is a drawing) [3, 12]: 6.6 mL

[I-].[Li+] [LiI]
% Conversion to Methyl Acetate [2]: 0.6 | % Selectivity to Methyl Acetate [2]: 100 | methyl acetate produced (head is a drawing) [3, 12]: 1 mL

tetrakis tetrahydrofuran adduct of a magnesium-dicobalt hexacarbonyl bismethyldiphenylphosphine complex [[C4 H8 O]4 Mg[Co(CO)3 PCH3 (C6 H5)2]2]
hexene-1 converted to C7 aldehydes and C7 alcohols ([5]; 1500 psi, H2 :CO 1:1, 140° C.): 99% | reacted product that was an aldehyde ([5]; 1500 psi, H2 :CO 1:1, 140° C.): 87% | conversion of 1-hexene to heptaldehydes ([5]; description): > 99% | selectivity in conversion of 1-hexene to heptaldehydes ([5]; description): 87%

— patent US4318826A, “Carbonylation catalysts” (Exxon Research & Engineering Co., priority 1980, dated 1982)
